Results reported in ChEMBL document CHEMBL4706731, “Semisynthetic Derivatives of the Verticillin Class of Natural Products through Acylation of the C11 Hydroxy Group” (ACS Med Chem Lett, 2021).

Tests used:
Type in all cases: functional, cell-based
OVCAR-3 = experiment: Cytotoxicity against human OVCAR-3 cells assessed as inhibition of cell proliferation measured after 72 hrs by CellTiter 96 AQueous One Solution Cell Proliferation assay; details: OVCAR-3, 72 h
MDA-MB-435 = experiment: Cytotoxicity against human MDA-MB-435 cells assessed as inhibition of cell proliferation measured after 72 hrs by CellTiter 96 AQueous One Solution Cell Proliferation assay; details: MDA-MB-435, 72 h
MDA-MB-231 = experiment: Cytotoxicity against human MDA-MB-231 cells assessed as inhibition of cell proliferation measured after 72 hrs by CellTiter 96 AQueous One Solution Cell Proliferation assay; details: MDA-MB-231, 72 h

| Structure (SMILES) | IC50 (OVCAR-3) [nM] | IC50 (MDA-MB-435) [nM] | IC50 (MDA-MB-231) [nM] |
| --- | --- | --- | --- |
| CN1C(=O)[C@]23SS[C@@]1(C)C(=O)N2[C@H]1Nc2ccccc2[C@@]1([C@@]12c4ccccc4N[C@@H]1N1C(=O)[C@]4(C)SS[C@]1(C(=O)N4C)[C@H]2OC(=O)CCC(=O)O)[C@@H]3O | 33 | 9 | 12 |
| CC[C@@]12SS[C@]3(C(=O)N1C)[C@@H](O)[C@]1([C@@]45c6ccccc6N[C@@H]4N4C(=O)[C@]6(CC)SS[C@]4(C(=O)N6C)[C@H]5OC(=O)C4CC4)c4ccccc4N[C@@H]1N3C2=O | 105 | 24 | 12 |
| CCOC(=O)O[C@H]1[C@]2([C@@]34c5ccccc5N[C@@H]3N3C(=O)[C@]5(CC)SS[C@]3(C(=O)N5C)[C@H]4O)c3ccccc3N[C@@H]2N2C(=O)[C@]3(CC)SS[C@]12C(=O)N3C | 137 | 11 | 7 |
| CC[C@@]12SS[C@]3(C(=O)N1C)[C@@H](O)[C@]1([C@@]45c6ccccc6N[C@@H]4N4C(=O)[C@]6(CC)SS[C@]4(C(=O)N6C)[C@H]5OS(=O)(=O)c4ccc(F)cc4)c4ccccc4N[C@@H]1N3C2=O | 79 | 31 | 49 |
| CC[C@@]12SS[C@]3(C(=O)N1C)[C@@H](O)[C@]1([C@@]45c6ccccc6N[C@@H]4N4C(=O)[C@]6(CC)SS[C@]4(C(=O)N6C)[C@H]5OC(=O)NC)c4ccccc4N[C@@H]1N3C2=O | 68 | 22 | 21 |
| CN1C(=O)[C@]23SS[C@@]1(C)C(=O)N2[C@H]1Nc2ccccc2[C@@]1([C@@]12c4ccccc4N[C@@H]1N1C(=O)[C@]4(C)SS[C@]1(C(=O)N4C)[C@H]2O)[C@@H]3O | 36 | 18 | 23 |
| CCCC(=O)O[C@H]1[C@]2([C@@]34c5ccccc5N[C@@H]3N3C(=O)[C@]5(CC)SS[C@]3(C(=O)N5C)[C@H]4O)c3ccccc3N[C@@H]2N2C(=O)[C@]3(CC)SS[C@]12C(=O)N3C | 25 | 19 | 17 |
| CC(=O)O[C@H]1C(=O)[C@@]2(C)[C@H]([C@H](OC(=O)c3ccccc3)[C@]3(O)C[C@H](OC(=O)[C@H](O)[C@@H](NC(=O)c4ccccc4)c4ccccc4)C(C)=C1C3(C)C)[C@]1(OC(C)=O)CO[C@@H]1C[C@@H]2O [PACLITAXEL] | 1.8 | 0.3 | 0.6 |
| CC[C@@]12SS[C@]3(C(=O)N1C)[C@@H](O)[C@]1([C@@]45c6ccccc6N[C@@H]4N4C(=O)[C@]6(CC)SS[C@]4(C(=O)N6C)[C@H]5O)c4ccccc4N[C@@H]1N3C2=O | 229 | 44 | 31 |
| CC[C@@]12SS[C@]3(C(=O)N1C)[C@@H](O)[C@]1([C@@]45c6ccccc6N[C@@H]4N4C(=O)[C@]6(CC)SS[C@]4(C(=O)N6C)[C@H]5OC(=O)N(C)C)c4ccccc4N[C@@H]1N3C2=O | 19 | 9 | 12 |
| CC[C@@]12SS[C@]3(C(=O)N1C)[C@@H](O)[C@]1([C@@]45c6ccccc6N[C@@H]4N4C(=O)[C@]6(CC)SS[C@]4(C(=O)N6C)[C@H]5OC(C)=O)c4ccccc4N[C@@H]1N3C2=O | 96 | 41 | 21 |
| CC[C@@]12SS[C@]3(C(=O)N1C)[C@@H](O)[C@]1([C@@]45c6ccccc6N[C@@H]4N4C(=O)[C@]6(CC)SS[C@]4(C(=O)N6C)[C@H]5OC(=O)CCC(=O)O)c4ccccc4N[C@@H]1N3C2=O | 133 | 21 | 13 |
| CC[C@@]12SS[C@]3(C(=O)N1C)[C@@H](O)[C@]1([C@@]45c6ccccc6N[C@@H]4N4C(=O)[C@]6(CC)SS[C@]4(C(=O)N6C)[C@H]5OC(=O)C(C)(C)C)c4ccccc4N[C@@H]1N3C2=O | 72 | 21 | 20 |
